Experimental findings from PubChem BioAssay (NCI) are described below.

The structures appear in SMILES notation.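 96-well plates; 48 h exposure; 5 concentrations. Endpoints by linear interpolation between flanking doses. Not reached: highest tested concentration assigned. GI50: concentration for 50% inhibition of growth. The concentration for full growth arrest is given as TGI.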

Common to all, as to assay: growth of human tumour cells (NCI), 48 h
The subject of experiment [1] is A549 NSCLC.
In experiment [2] the test system is MCF7 breast.
In experiment [3] the test system is PC-3 prostate.
Experiment [4] concerns SK-OV-3 ovarian.
In experiment [5] the test system is UACC-62 melanoma.
The test system of experiment [6] is UO-31 renal.
Experiment [7] deals with CAKI-1 renal.
The subject of experiment [8] is KM12 colon.
Experiment [9] relates to SF-295 CNS.
Experiment [10] deals with CCRF-CEM leukemia.

As to `COc1cc(C2c3cc4c(cc3[C@H](NC(=O)c3cccs3)C3COC(=O)[C@H]23)OCO4)cc(OC)c1OC` (stereo not given in full), the TGI in experiment [1] is 37.1 µM; in experiment [2], 31.3 µM; in experiment [3], 0.0236 µM; in [4] it was > 100 µM; in [5], > 100 µM; in [6] it was > 44.3 µM.

On to `COc1ccc(Nc2c3c4c(cccc4[nH]c2=O)C(=O)c2ccccc2-3)cc1`, for which the GI50 is < 0.0221 µM in experiment [1]; < 0.0218 µM in experiment [7]; < 0.0182 µM in experiment [8]; < 0.0182 µM in experiment [2]; 0.0473 µM in experiment [3]; < 0.0174 µM in experiment [9]. For the same molecule, the GI50 was 0.0492 µM in experiment [4], 0.031 µM in experiment [5] and 0.319 µM in [6]. For the same molecule, the TGI is > 32.1 µM in experiment [1]; 1.23 µM in experiment [7]; 0.181 µM in experiment [8]; 21.2 µM in experiment [2]; > 100 µM in experiment [3]; < 0.0275 µM in experiment [9]. In addition, the TGI was > 56.3 µM in experiment [4], > 100 µM in experiment [5] and > 100 µM in experiment [6].

In the case of `O=C(c1ccccc1)c1ccc(Cl)c([N+](=O)[O-])c1`, the GI50 in experiment [1] is 16.3 µM; in experiment [7], 5.5 µM; in experiment [10], 3.18 µM; in experiment [8], 5.97 µM; in experiment [2] it was 2.56 µM; in experiment [3] it was 8.22 µM. Moreover, the GI50 in experiment [9] is 17.8 µM; in experiment [4], 15.8 µM; in experiment [6], 2.25 µM. The TGI was 40.5 µM in experiment [1]; 20.2 µM in [7]; 13.5 µM in experiment [10]; 18.9 µM in experiment [8]; 9.74 µM in experiment [2]; 29.8 µM in [3]. The values for the TGI in [9], in experiment [4] and in experiment [6] were 34.5 µM, 29.9 µM and 5.34 µM, respectively.

Consider `COc1ccc(-c2cc(-c3ccc(O)cc3)nc3nc(=S)[nH]c(N)c23)cc1`, for which the GI50 in [1] was 17.4 µM; in [7] it was 27.1 µM; in experiment [8], 16.9 µM; in experiment [2], 12 µM; in experiment [3] it was 15.8 µM; in experiment [9], 20 µM. For the same molecule, the GI50 in [5] was 14.7 µM; in experiment [6], 13.2 µM. Besides, the TGI in [1] came out at 54.6 µM; in [7] it was 88.7 µM; in [8] it was 41.3 µM; in experiment [2], 35.6 µM; in [3] it was 43.7 µM; in [9] it was 61.6 µM. Besides, the figures for the TGI in experiment [5] and in experiment [6] were 30.3 µM and 44.9 µM, respectively.

In the case of `COc1ccc(-c2cn(-c3ccc(Cl)cc3)c(=S)[nH]2)cc1OC`, the GI50 in experiment [1] is 66.4 µM; in experiment [7], 3.24 µM; in experiment [10], > 100 µM; in experiment [8] it was 23.8 µM; in experiment [2], 4.77 µM; in [3] it was 65.5 µM. For the same molecule, the GI50 is 6.05 µM in [9], 48.9 µM in experiment [4] and 39.6 µM in experiment [6]. The TGI in [1], in [7], in experiment [10], in experiment [8], in [2] and in experiment [3] was > 100 µM each time. Further, the TGI in experiment [9], in experiment [4] and in experiment [6] was > 100 µM in each case.

For the molecule `COc1ccc2c(CC(=O)O)cc(=O)oc2c1`, the TGI in [1], in experiment [7], in [10], in experiment [8], in experiment [2] and in experiment [3] was > 100 µM throughout. Also, the TGI in experiment [9], in [5] and in experiment [6] was > 100 µM throughout.

In the case of `COc1ccc(CN2C(=O)C(Cc3cc(OC)c(OC)c(C)c3OC)N(C(=O)OC(C)C)C(=O)/C2=C/c2cc(OC)c(OC)c(C)c2OC)cc1` (stereo not given), the TGI in experiment [1], in [7], in experiment [10], in [8], in experiment [9] and in [4] was > 100 µM throughout. Besides, the TGI in experiment [5] and in experiment [6] was > 100 µM each time.

Regarding `COC(=O)CSc1ccccc1`, the TGI in experiment [1], in [7], in experiment [10], in experiment [8], in experiment [9] and in experiment [4] was > 100 µM throughout. Moreover, the TGI in [5] and in [6] was > 100 µM throughout.

In the case of `CC(C)(C)C(=O)OCOP(=O)(OCOC(=O)C(C)(C)C)C1CCCN(OC(=O)c2ccccc2)C1=O` (stereo not given), the GI50 in [1] was 2.02 µM; in experiment [10] it was 0.643 µM; in experiment [8], 0.549 µM; in experiment [2] it was 0.528 µM; in experiment [3], 4.38 µM; in experiment [4] it was 1.99 µM. The GI50 in experiment [5] is 1.09 µM; in [6] it was 0.297 µM. For the same molecule, the TGI was 25.2 µM in experiment [1]; 29.7 µM in [10]; 5.94 µM in experiment [8]; 10.1 µM in [2]; > 100 µM in experiment [3]; 27.1 µM in experiment [4]. Also, the TGI was 2.99 µM in experiment [5] and 2.36 µM in experiment [6].

`O=C(c1ccccn1)c1nnn2ccccc12`: the TGI in experiment [1], in [7], in experiment [10], in experiment [8], in experiment [2] and in [3] was > 100 µM in each case. Moreover, the TGI in experiment [9], in experiment [4] and in experiment [5] was > 100 µM throughout.

As to `COc1ccc(/C=C2\N=C(c3ccccc3)N(c3cc(C(F)(F)F)ccc3Cl)C2=O)cc1OC`, the GI50 in [1] is 82 µM; in experiment [7] it was > 100 µM; in experiment [8], 39 µM; in experiment [2] it was 35.4 µM; in [3], 31.4 µM; in experiment [9] it was 95 µM. For the same molecule, the values for the GI50 in [4], in experiment [5] and in [6] were > 100 µM, 64.3 µM and 48.4 µM, respectively. The TGI in experiment [1], in [7], in experiment [8], in [2], in [3] and in experiment [9] was > 100 µM throughout. Further, the TGI in [4], in experiment [5] and in [6] was > 100 µM each time.

As to `CN(C)c1ccccc1CC(c1c[nH]c2ccccc12)c1c[nH]c2ccccc12`, the TGI in [1] was 22.2 µM; in [7] it was 16.3 µM; in [10], 26.6 µM; in [8] it was 14.5 µM; in experiment [9], 24.4 µM; in [4] it was 33.7 µM. The TGI in experiment [5] was determined as 27.6 µM; in [6] it was 23.1 µM.

As for `O=C(Nc1ccc(Cl)c(Cl)c1)C(=O)Nn1c(=S)[nH]c2ccccc2c1=O`, the TGI in [1], in experiment [7], in experiment [10], in experiment [8], in experiment [9] and in experiment [4] was > 100 µM each time. Moreover, the TGI in [5] and in [6] was > 100 µM throughout.

For the molecule `O=c1oc2c3ccc4ccccc4c3n(CCN3CCOCC3)c2c2ccccc12`, the TGI in experiment [1] is > 100 µM; in experiment [7] it was > 100 µM; in experiment [10] it was 15.2 µM; in experiment [8], > 100 µM; in experiment [9], > 100 µM; in experiment [4], > 100 µM. Besides, the TGI in experiment [5] and in [6] was > 100 µM throughout.

As for `COc1ccc(NC(=O)CC/C(CC(=O)c2ccccc2Cl)=N\Nc2nnc(C)n2N)cc1`, the TGI in experiment [1], in experiment [7], in experiment [10], in experiment [8], in experiment [9] and in experiment [4] was > 100 µM each time. The TGI in experiment [5] and in [6] was > 100 µM in each case.

Turning to `CC1(C)Cc2cccc(OCC(O)CN3CCN(c4ccc(F)cc4)CC3)c2O1` (stereo not given), the GI50 in experiment [1] is 19.4 µM; in experiment [7], 15.8 µM; in [8], 15.3 µM; in experiment [2], 13.4 µM; in [3] it was 14 µM; in [9], 8.83 µM. The GI50 in experiment [4] was 23.2 µM; in experiment [5], 11.6 µM; in experiment [6], 13.5 µM. The TGI in [1] was > 50 µM; in [7], 37.7 µM; in experiment [8] it was > 50 µM; in experiment [2], 49.7 µM; in [3], > 50 µM; in [9] it was 39.9 µM. In addition, the TGI in experiment [4], in experiment [5] and in [6] was > 50 µM throughout.

Consider `O=C(/C=C/C=C/c1ccccc1)c1ccc(Nc2nc(Nc3ccccc3)nc(Nc3ccccc3)n2)cc1`, for which the GI50 in experiment [1] was 89.1 µM; in experiment [7], 16.3 µM; in [10], 19.4 µM; in experiment [8], 57.9 µM; in experiment [2] it was 17.7 µM; in [9], 32.5 µM. For the same molecule, the GI50 in [4] was > 100 µM; in experiment [5], > 100 µM; in experiment [6], 13.3 µM. Besides, the TGI in [1], in [7], in experiment [10], in [8], in [2] and in experiment [9] was > 100 µM in each case. Besides, the TGI in [4], in experiment [5] and in [6] was > 100 µM throughout.

Consider `CN(C)c1ccc(/C=C/C(=O)c2ccccc2)cc1Br`, for which the TGI was > 100 µM in [1]; 32.9 µM in experiment [7]; 62.7 µM in experiment [10]; 33.3 µM in experiment [8]; 45.7 µM in [9]; > 100 µM in experiment [4]. In addition, the TGI in experiment [5] was 32.3 µM; in [6], 33.3 µM.

Take `O=C1C(c2ccc([N+](=O)[O-])cc2)=[N+]([O-])c2ccccc21`: the TGI in experiment [1], in experiment [7], in experiment [10], in experiment [8], in experiment [9] and in experiment [4] was > 100 µM in each case. Besides, the TGI in experiment [5] worked out at 40.5 µM; in experiment [6], 67 µM.

`O=c1cc2n(c(=O)[nH]1)C1OC(C(O)C1O)[C@H]2CCO` (stereo not given in full): the TGI in experiment [1], in experiment [7], in experiment [10], in [8], in experiment [9] and in experiment [4] was > 100 µM in each case. Besides, the TGI in [5] and in [6] was > 100 µM throughout.

For `CCOc1cc(C=O)c2c(ccc3ccc(OC)c(OC)c32)c1OC`, the TGI in [1], in experiment [7], in experiment [10], in experiment [8], in experiment [3] and in [9] was > 100 µM each time. Besides, the TGI in [4], in experiment [5] and in [6] was > 100 µM each time.

`C#CC[C@@H]1C[C@]2(C)[C@H]3CC[C@@H]4[C@H]5[C@H](C(=C)C)CC[C@]5(C(=O)O)CC[C@@]4(C)[C@]3(C)CC[C@H]2C(C)(C)[C@H]1O`: the GI50 in experiment [1] is 1.31 µM; in experiment [10] it was 2.36 µM; in [8] it was 1.64 µM; in [3] it was 1.5 µM; in [9], 1.45 µM; in experiment [4], 2.39 µM. The GI50 in experiment [5] was 2.64 µM; in experiment [6], 1.83 µM. In addition, the TGI in [1] stood at 2.8 µM; in experiment [10], 9.02 µM; in experiment [8], 4.83 µM; in experiment [3], 3.52 µM; in [9], 3.17 µM; in experiment [4] it was 5.25 µM. In addition, the TGI worked out at 9.84 µM in experiment [5] and 5.33 µM in experiment [6].

Regarding `O=C(CCCCC(=O)N/N=C\c1ccccc1Cl)N/N=C\c1ccccc1Cl`, the GI50 in [1] is 1.77 µM; in [10] it was > 100 µM; in experiment [2], 1.62 µM; in experiment [3], 0.511 µM; in experiment [9] it was 0.539 µM; in experiment [5], 3.98 µM. In addition, the GI50 in experiment [6] is 3.32 µM. Also, the TGI in experiment [1] is > 100 µM; in [10], > 100 µM; in experiment [2], > 100 µM; in [3] it was > 100 µM; in experiment [9], 44.4 µM; in [5] it was > 100 µM. Further, the TGI in [6] was > 100 µM.
